Results: US9938273B2 (Plexxikon Inc., priority 2015, dated 2018)

The molecules below were run against T1, BA/F3-FLT3-ITD + D835Y cells (Homo sapiens, UniProt P36888, D835Y, cells depend on it, form not given) (assay: Cell proliferation assay (CellTiter-Glo), engineered BA/F3 cells). Settings: BaF3 FLT3 ITD/D835Y cells, 3d-Growth; read-out: BaF3_FLT3 ITD/D835Y 3d-Growth: IC50.
T1 sequence (P36888 1-993 D835Y): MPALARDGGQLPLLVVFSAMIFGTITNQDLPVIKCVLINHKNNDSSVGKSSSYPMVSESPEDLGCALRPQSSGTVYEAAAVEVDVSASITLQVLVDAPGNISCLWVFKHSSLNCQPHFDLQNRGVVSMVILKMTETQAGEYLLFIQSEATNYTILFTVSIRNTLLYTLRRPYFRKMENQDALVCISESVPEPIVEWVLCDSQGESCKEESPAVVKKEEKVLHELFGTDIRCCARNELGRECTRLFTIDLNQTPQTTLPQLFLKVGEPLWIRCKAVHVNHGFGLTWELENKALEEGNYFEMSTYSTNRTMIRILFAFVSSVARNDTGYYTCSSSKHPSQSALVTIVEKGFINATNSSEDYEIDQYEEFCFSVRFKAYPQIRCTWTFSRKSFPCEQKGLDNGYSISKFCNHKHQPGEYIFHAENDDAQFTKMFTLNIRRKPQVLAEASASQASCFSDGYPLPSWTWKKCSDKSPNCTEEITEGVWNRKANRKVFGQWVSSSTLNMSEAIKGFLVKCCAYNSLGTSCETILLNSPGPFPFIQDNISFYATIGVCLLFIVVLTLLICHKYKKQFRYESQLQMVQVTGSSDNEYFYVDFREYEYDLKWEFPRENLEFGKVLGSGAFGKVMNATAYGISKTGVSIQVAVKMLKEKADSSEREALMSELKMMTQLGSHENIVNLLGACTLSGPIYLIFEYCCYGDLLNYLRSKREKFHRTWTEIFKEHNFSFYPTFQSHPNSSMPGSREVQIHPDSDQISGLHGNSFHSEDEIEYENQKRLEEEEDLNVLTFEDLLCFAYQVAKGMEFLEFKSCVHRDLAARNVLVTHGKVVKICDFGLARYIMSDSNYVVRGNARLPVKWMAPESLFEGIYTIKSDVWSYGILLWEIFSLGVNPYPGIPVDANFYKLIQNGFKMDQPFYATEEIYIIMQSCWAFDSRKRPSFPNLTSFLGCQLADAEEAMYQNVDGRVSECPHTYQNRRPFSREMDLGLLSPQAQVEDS
Type: cell-based, murine
In short: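 Three-day growth at 37 °C, 5% CO2 under compound (1 μM top final, 1:3 dilutions, eight points, 0.2% DMSO), read as ATP luminescence by CellTiter-Glo for IC50. Cells: MOLM-14 with FLT3 ITD plus D835Y or F691L, and IL-3-deprived Ba/F3 transfected with FLT3 ITD/D835Y, 1×10^4 per well.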

GI50 [µM] | SMILES
0.0001 to 10 | CONC(=O)c1cccc(-c2cnc3[nH]c(-c4ccccc4)cc3c2)c1 [Compound P-0003, N-methoxy-3-(2-phenyl-1H-pyrrolo[2,3-b]pyridin-5-yl)benzamide]
0.0001 to 10 | C#Cc1cc2cc(-c3cccc(S(=O)(=O)NC4CC4)c3)cnc2[nH]1 [Compound P-0004, N-cyclopropyl-3-(2-ethynyl-1H-pyrrolo[2,3-b]pyridin-5-yl)benzenesulfonamide]
0.0001 to 10 | NC(=O)Nc1ccc(-c2cnc3[nH]c(-c4ccccc4)cc3c2)cc1 [Compound P-0005, [4-(2-phenyl-1H-pyrrolo[2,3-b]pyridin-5-yl)phenyl]urea]
0.0001 to 10 | CNC(=O)Nc1ccc(-c2cnc3[nH]c(-c4ccccc4)cc3c2)cc1 [Compound P-0006, 1-methyl-3-[4-(2-phenyl-1H-pyrrolo[2,3-b]pyridin-5-yl)phenyl]urea]
0.0001 to 10 | CN(C)S(=O)(=O)Nc1cccc(-c2cnc3[nH]c(-c4ccccc4)cc3c2)c1 [Compound P-0007, 5-[3-(dimethylsulfamoylamino)phenyl]-2-phenyl-1H-pyrrolo[2,3-b]pyridine]
0.0001 to 10 | O=S(=O)(NC1CC1)c1cccc(-c2cnc3[nH]c(C#CCO)cc3c2)c1 [Compound P-0008, N-cyclopropyl-3-[2-(3-hydroxyprop-1-ynyl)-1H-pyrrolo[2,3-b]pyridin-5-yl]benzenesulfonamide]
0.0001 to 10 | CN(C)CC#Cc1cc2cc(-c3cccc(S(=O)(=O)NC4CC4)c3)cnc2[nH]1 [Compound P-0009, N-cyclopropyl-3-[2-[3-(dimethylamino)prop-1-ynyl]-1H-pyrrolo[2,3-b]pyridin-5-yl]benzenesulfonamide]
0.0001 to 10 | O=S(=O)(NC1CC1)c1cccc(-c2cnc3[nH]c(C#CC4CCCCC4)cc3c2)c1 [Compound P-0010, 3-[2-(2-cyclohexylethynyl)-1H-pyrrolo[2,3-b]pyridin-5-yl]-N-cyclopropyl-benzenesulfonamide]
0.0001 to 10 | CC(C)(C)OC(=O)NC1CCN(C(=O)c2n[nH]c3ccc(-c4cnc5[nH]c(-c6ccccc6)cc5c4)cc23)CC1 [Compound P-0011, tert-butyl N-[1-[5-(2-phenyl-1H-pyrrolo[2,3-b]pyridin-5-yl)-1H-indazole-3-carbonyl]-4-piperidyl]carbamate]
0.0001 to 10 | NC1CCN(C(=O)c2n[nH]c3ccc(-c4cnc5[nH]c(-c6ccccc6)cc5c4)cc23)CC1 [Compound P-0012, (4-amino-1-piperidyl)-[5-(2-phenyl-1H-pyrrolo[2,3-b]pyridin-5-yl)-1H-indazol-3-yl]methanone]
0.0001 to 10 | NC1CCN(C(=O)c2cccc(-c3cnc4[nH]c(-c5ccccc5)cc4c3)n2)CC1 [Compound P-0013, (4-amino-1-piperidyl)-[6-(2-phenyl-1H-pyrrolo[2,3-b]pyridin-5-yl)-2-pyridyl]methanone]
0.0001 to 10 | O=S(=O)(NC1CC1)c1cccc(-c2cnc3[nH]c(C#Cc4ccccc4)cc3c2)c1 [Compound P-0014, N-cyclopropyl-3-[2-(2-phenylethynyl)-1H-pyrrolo[2,3-b]pyridin-5-yl]benzenesulfonamide]
0.0001 to 10 | N[C@H]1CCN(C(=O)c2cccc(-c3cnc4[nH]c(-c5ccccc5)cc4c3)n2)C1 [Compound P-0015, [(3S)-3-aminopyrrolidin-1-yl]-[6-(2-phenyl-1H-pyrrolo[2,3-b]pyridin-5-yl)-2-pyridyl]methanone]
0.0001 to 10 | N[C@H]1CCN(C(=O)c2n[nH]c3ccc(-c4cnc5[nH]c(-c6ccccc6)cc5c4)cc23)C1 [Compound P-0016, [(3S)-3-aminopyrrolidin-1-yl]-[5-(2-phenyl-1H-pyrrolo[2,3-b]pyridin-5-yl)-1H-indazol-3-yl]methanone]
0.0001 to 10 | CC(C)(C)OC(=O)NC1CCN(C(=O)c2cccc(-c3cnc4[nH]c(-c5ccccc5)cc4c3)n2)CC1 [Compound P-0017, tert-butyl N-[1-[6-(2-phenyl-1H-pyrrolo[2,3-b]pyridin-5-yl)pyridine-2-carbonyl]-4-piperidyl]carbamate]
0.0001 to 10 | NC1CCC(NC(=O)c2cccc(-c3cnc4[nH]c(-c5ccccc5)cc4c3)n2)CC1 (stereo not drawn) [Compound P-0018, N-(4-aminocyclohexyl)-6-(2-phenyl-1H-pyrrolo[2,3-b]pyridin-5-yl)pyridine-2-carboxamide]
0.0001 to 10 | CC(=O)NC1CCN(C(=O)c2cccc(-c3cnc4[nH]c(-c5ccccc5)cc4c3)n2)CC1 [Compound P-0020, N-[1-[6-(2-phenyl-1H-pyrrolo[2,3-b]pyridin-5-yl)pyridine-2-carbonyl]-4-piperidyl]acetamide]
0.0001 to 10 | CC(=O)NC1CCN(C(=O)c2n[nH]c3ccc(-c4cnc5[nH]c(-c6ccccc6)cc5c4)cc23)CC1 [Compound P-0021, N-[1-[5-(2-phenyl-1H-pyrrolo[2,3-b]pyridin-5-yl)-1H-indazole-3-carbonyl]-4-piperidyl]acetamide]
0.0001 to 10 | CN1CCC(NC(=O)c2n[nH]c3ccc(-c4cnc5[nH]c(-c6ccccc6)cc5c4)cc23)CC1 [Compound P-0022, N-(1-methyl-4-piperidyl)-5-(2-phenyl-1H-pyrrolo[2,3-b]pyridin-5-yl)-1H-indazole-3-carboxamide]
0.0001 to 10 | O=C(c1cccc(-c2cnc3[nH]c(-c4ccccc4)cc3c2)n1)N1CCC(CO)CC1 [Compound P-0023, [4-(hydroxymethyl)-1-piperidyl]-[6-(2-phenyl-1H-pyrrolo[2,3-b]pyridin-5-yl)-2-pyridyl]methanone]
0.0001 to 10 | CCOC(=O)C1CCN(C(=O)c2cccc(-c3cnc4[nH]c(-c5ccccc5)cc4c3)n2)CC1 [Compound P-0025, ethyl 1-[6-(2-phenyl-1H-pyrrolo[2,3-b]pyridin-5-yl)pyridine-2-carbonyl]piperidine-4-carboxylate]
0.0001 to 10 | NCC1CCN(C(=O)c2cccc(-c3cnc4[nH]c(-c5ccccc5)cc4c3)n2)CC1 [Compound P-0026, [4-(aminomethyl)-1-piperidyl]-[6-(2-phenyl-1H-pyrrolo[2,3-b]pyridin-5-yl)-2-pyridyl]methanone]
0.0001 to 10 | CC1CCN(C(=O)c2n[nH]c3ccc(-c4cnc5[nH]c(-c6ccccc6)cc5c4)cc23)CC1 [Compound P-0027, (4-methyl-1-piperidyl)-[5-(2-phenyl-1H-pyrrolo[2,3-b]pyridin-5-yl)-1H-indazol-3-yl]methanone]
0.0001 to 10 | CNC1CCN(C(=O)c2n[nH]c3ccc(-c4cnc5[nH]c(-c6ccccc6)cc5c4)cc23)C1 (stereo not drawn) [Compound P-0028, [3-(methylamino)pyrrolidin-1-yl]-[5-(2-phenyl-1H-pyrrolo[2,3-b]pyridin-5-yl)-1H-indazol-3-yl]methanone]
0.0001 to 10 | CNC1CCN(C(=O)c2cccc(-c3cnc4[nH]c(-c5ccccc5)cc4c3)n2)C1 (stereo not drawn) [Compound P-0040, [3-(methylamino)pyrrolidin-1-yl]-[6-(2-phenyl-1H-pyrrolo[2,3-b]pyridin-5-yl)-2-pyridyl]methanone]
0.0001 to 10 | CNC1CCN(C(=O)c2cccc(-c3cnc4[nH]c(-c5cn(C)nc5C)cc4c3)n2)C1 (stereo not drawn) [Compound P-0049, [6-[2-(1,3-dimethylpyrazol-4-yl)-1H-pyrrolo[2,3-b]pyridin-5-yl]-2-pyridyl]-[3-(methylamino)pyrrolidin-1-yl]methanone]
0.0001 to 10 | c1ccc(-c2cc3cc(-c4cccc(OC5CCNCC5)n4)cnc3[nH]2)cc1 [Compound P-0050, 2-phenyl-5-[6-(4-piperidyloxy)-2-pyridyl]-1H-pyrrolo[2,3-b]pyridine]
0.0001 to 10 | CNC1CN(C(=O)c2cccc(-c3cnc4[nH]c(-c5ccccc5)cc4c3)n2)C1 [Compound P-0052, [3-(methylamino)azetidin-1-yl]-[6-(2-phenyl-1H-pyrrolo[2,3-b]pyridin-5-yl)-2-pyridyl]methanone]
0.0001 to 10 | N[C@H]1CCN(C(=O)c2ncc(-c3cnc4[nH]c(-c5ccccc5)cc4c3)s2)C1 [Compound P-0054, [(3S)-3-aminopyrrolidin-1-yl]-[5-(2-phenyl-1H-pyrrolo[2,3-b]pyridin-5-yl)thiazol-2-yl]methanone]
0.0001 to 10 | CNC1CCN(C(=O)c2cccc(-c3cnc4[nH]c(-c5ccc(F)cc5)cc4c3)n2)C1 (stereo not drawn) [Compound P-0055, [6-[2-(4-fluorophenyl)-1H-pyrrolo[2,3-b]pyridin-5-yl]-2-pyridyl]-[3-(methylamino)pyrrolidin-1-yl]methanone]
